Reference: US20040265350A1, “Use of a porous carrier” (priority 2000, published 2004)
“Also recorded” adds a separate entry of the source.

Experiments:
[1] = system: human osteoblast like cells(HOB); assay: MTT assay of cell proliferation, HOB cells; format: cell-based
Source text: (§1) Two osteosarcoma cell lines and primary human osteoblasts were used in the cell culture studies of the effect of increased MTX concentration and duration time. The MG63 cells were obtained from a […] (ATCC-CRL-1427). The human osteosarcoma like cells(HOS) cells were obtained from a […] (ATCC-CRL-1543). The human osteoblast like cells(HOB) were isolated from patients undergoing total knee replacement. The cell lines were each cultured in complete Dulbecco's Modified Eagle's Medium (DMEM) (Gibco, UK) supplemented with 10% foetal calf serum (FCS) (Gibco, UK), non essential amino acids (1%), ascorbic acid (150˜g/ml), L glutamine (0.02M), HEPES (0.01M), penicillin (100 units/ml) and streptomycin (100˜g/ml), at 37° C. and 5% CO2 in a 99% humidified sterile atmosphere. The medium was changed at least twice a week to prevent nutrient depletion-and waste product accumulation.
(§2) Once the cells had become confluent, they were removed by emptying the medium, washing with 10 ml PBS and adding 5 ml of 0.25% Trypsin and incubating at 37° C. […] Next the cells were counted under a light microscope and concentrations of 13.2×10^4 cells/ml made up. […]
(§3) The effects of MTX on the proliferation of ostersarcoma cells was measured by MTT assay. […] The absorbance of each well was then read by a Dynatech microplate reader (BioRad Model 3550) at a wavelength of 595 nm and 5 sec mixing time. […]

osteoblast cells = conditions: 5 mM MTX; cited from earlier work
MG63 cells = assay: MTT assay of cell proliferation, MG63 cells; format: cell-based, human
Source text: as §1, §2, §3

[2] = system: human osteosarcoma like cells(HOS); assay: MTT assay of cell proliferation, HOS cells; format: cell-based
Source text: as §1, §2, §3

osteosarcoma cells = conditions: 5 mM MTX; cited from earlier work
[3] = Leaching of MTX from HA discs with or without PLG; format: physicochemical
Method: Initially the release of MTX from HA using the polymer PLG (75:25) was performed to establish whether this polymer {which is expected to degrade at a slower rate than PLG (50:50)} induced a slowed rate of release of MTX. HA discs from the second batch were used for the experiment and approximately the same quantities of MTX, PLG and acetonitrile were used. The experiment was labelled as follows; IA and IB were loaded by centrifugation and IB contains polymer, IC and ID were loaded by the vacuum technique and ID contains polymer. The following results-were obtained [formula]

[4] = Leaching of Prednisolone from HA discs with or without PLG; format: physicochemical; conditions: presence of PLG (50:50)
Method: Serial dilution experiments were performed to obtain the following calibration chart and equation for Prednisolone. [formula]
Four HA discs from the second batch were used for these experiments. Approximately […] of Prednisolone was used in each of the acetonitrile solutions. The experiments were labelled 1AA, 1BB, 1CC and 1DD. 1M and 1BB were loaded by centrifugation and 1BB contained 0.1 g of PLG (50:50). 1CC and 1DD were loaded using the vacuum technique and 1DD contained 0.1 g of PLG (50:50). The standard leaching experiments were carried out and the results presented below. [formula]

[5] = Solubility seen while preparing loading solutions; format: physicochemical
Source text: After drying the block in an oven overnight the vacuum method was again used to inject a solution of PLG (85:15) (0.105 g) in acetonitrile (50 cm^3). Again the block was oven dried overnight.

[6] = Leaching of cis-platin from HA block into distilled water, absorbance at 206 nm; format: physicochemical
Method: No yellow colour was observed within the block.
Leaching experiments were carried out in distilled water (35 cm^3) with stirring, in the absence of light and closed to prevent evaporation. Absorbance was recorded at λ 206 nm at appropriate intervals and all caclulations required the extinction coefficient 3057 mol^−1 dm^3 cm^−1. [formula]

[7] = Leaching of [Fe(phen)3][ClO4]2 from HA blocks into distilled water, UV-Vis at 512 nm; format: physicochemical
Source text: Leaching with stirring of solutions to avoid inaccuracies due to concentration gradients. (According to present arrangements however some anomalies may result from occasional jarring of the block by the magnetic follower).
Half of the block prepared in method 3 was immersed in distilled water (30 cm3) and the absorbance recorded by UV-Vis spectrometry at wavelength 512 nm. An extinction coefficient of 10,620 mol^−1 dm^3 cm^−1 was used in all calculations.
Vacuum method 3 was used for loading the compounds onto HA, again blocks of porosity 83.35% (0006) were used with approximate dimensions, 20×20×15mm, weight 3.6-3.8 g. […] […] Again the blocks were dried in the oven. (In order to fully dissolve the polymer in acetronitrile stirring for up to 1 hour is required before loading).
All leaching experiments were undertaken using the cut halves of the loaded blocks with distilled water (30 cm3) and constant stirring. […] This buoyancy is likely to be due to the polymer blocking pores in the HA trapping air inside the block. […] Again absorbance at λ 512 nm was recorded at appropriate intervals. [formula]

[8] = 1 day exposure, MTX 0.1 to 1000 μg/ml
[9] = 3 day exposure, same concentrations
[10] = block loaded with complex and PLG (50:50)

## CN(Cc1cnc2nc(N)nc(N)c2n1)c1ccc(C(=O)N[C@@H](CCC(=O)O)C(=O)O)cc1 [MTX, Methotrexate]
[1]; [8]
  cell proliferation (MTT): decrease in proliferation as MTX concentration rose
[1]; [9]
  cell proliferation (MTT): reduced level of cell proliferation compared with the 1 day exposure samples; also recorded: affected to a similar degree to the HOS cells
Osteoblast cells
  decrease in proliferation of osteoblast cells: 30%
MG63 cells; MG63, 1 day exposure, MTX 0.1 to 1000 μg/ml
  cell proliferation (MTT): decrease in proliferation as MTX concentration rose
MG63 cells; MG63, 3 day exposure, rising MTX concentration
  cell proliferation (MTT): erratic behaviour; also recorded: affected only slightly
[2]; [8]
  cell proliferation (MTT): only a small decrease in proliferation
[2]; [9]
  cell proliferation (MTT): reduced level of cell proliferation compared with the 1 day exposure samples
Osteosarcoma cells
  decrease in proliferation of osteosarcoma cells: 90%
[3]; presence of PLG (50:50), weighted discs
  effect of PLG (50:50) on release of MTX from HA: slower release rate
[3]; presence of PLG (75:25)
  effect of PLG (75:25) on release of MTX from HA: does slow the release

## C[C@]12C=CC(=O)C=C1CC[C@@H]1[C@@H]2[C@@H](O)C[C@@]2(C)[C@H]1CC[C@]2(O)C(=O)CO [Prednisolone]
[4]
  effect of polymer on release of Prednisolone from HA: slowed
[5]; acetonitrile
  solubility in acetonitrile: dissolves

## N.N.[Cl][Pt][Cl] [cis-platin]
[6]; no polymer, distilled water, stirring, dark
  time after which almost the entire drug / the majority is released from HA: 45 min
[6]; presence of PLG (50:50)
  effect of PLG on release of cis-platin from HA: slowed

## Iron(II) Tris Phenanthrolin Perchlorate [[Fe(phen)3][ClO4]2]
[7]; block loaded by vacuum method 3 from methanol, no polymer, distilled water, stirring
  time after which almost all complex is released from the block: 170 min
[7]; [10]
  effect of PLG impregnation on release of complex: dramatically slows the release
  time at which continuing release of complex is still observed: > 5 days
[7]; block loaded with complex and PLG (50:50), listed as Iron Tris Phen
  effect of PLG impregnation on release of complex: significantly slows the release
[7]; control block loaded from acetonitrile, no PLG
  time after which approximately all / the majority of complex is released: 300 min
[7]; method 3 block, replaced after 330 minutes, read after a further 20 hours
  further quantity released after solution replaced with distilled water: 0.14 mg
[7]; no polymer
  release profile of complex from the block: two phases; also recorded: initial burst

## Poly(DL-Lactide-co-Glycolide) [PLG]
[5]
  solubility in methanol: not soluble
  solubility in water: not soluble
